Results taken from paper PMC8815882, “Screening the pandemic response box identified benzimidazole carbamates, Olorofim and ravuconazole as promising drug candidates for the treatment of eumycetoma” (PLoS Neglected Tropical Diseases, 2022).
Where “and” joins values, the source holds several entries; their conditions need not be identical. Equal entries are not always repeated. Where two headings read alike, the source gives them in different places.

Test system: M. mycetomatis genome strain MM55
Assay: CLSI M38-A2 based in vitro susceptibility screening (XTT or resazurin), growth at fixed concentration
Type: cell-based, Madurella mycetomatis
Conditions: for activity at 25 µM / activity at 100 µM / Percent fungal survival at 100 µM: Madurella mycetomatis; for Percent fungal survival at 100 µM: read-out: Percentage survival at 100um, 100 uM A (second replicate column)
[1] = 25 uM, replicate A, read-out: Percentage survival at 25um, 25 um A
[2] = 25 uM, replicate B, read-out: Percentage survival at 25um, 25 uM B
[3] = 25 uM, replicate C, read-out: Percentage survival at 25um, 25 uM C
[4] = 25 uM, mean of three, M. mycetomatis MM55, read-out: Percentage survival at 25um, 25 uM mean
[5] = 25 uM, replicate A, M. mycetomatis MM55, read-out: Percentage survival at 25um, 25 um A
[6] = 25 uM, replicate B, M. mycetomatis MM55, read-out: Percentage survival at 25um, 25 uM B
[7] = 25 uM, replicate C, M. mycetomatis MM55, read-out: Percentage survival at 25um, 25 uM C
[8] = 100 uM, mean of three, M. mycetomatis MM55, read-out: Percentage survival at 100um, 100 uM mean
[9] = 100 uM, replicate 1, M. mycetomatis MM55, read-out: Percentage survival at 100um, 100 uM A (first replicate column)
[10] = 100 uM, replicate 2, M. mycetomatis MM55
[11] = 100 uM, replicate 3, M. mycetomatis MM55, read-out: Percentage survival at 100um, 100 uM A (third replicate column)
[12] = 25 uM, mean of three replicates, read-out: Percentage survival at 25um, 25 uM mean
[13] = 100 uM, mean of three replicates, read-out: Percentage survival at 100um, 100 uM mean
[14] = 100 uM, first replicate column, read-out: Percentage survival at 100um, 100 uM A
[15] = 100 uM, second replicate column, read-out: Percentage survival at 100um, 100 uM A
[16] = 100 uM, third replicate column, read-out: Percentage survival at 100um, 100 uM A
[17] = 25 uM, mean of replicates, read-out: Percentage survival at 25um, 25 uM mean
[18] = 100 uM, mean of replicates, read-out: Percentage survival at 100um, 100 uM mean
[19] = 100 uM, replicate 1, read-out: Percentage survival at 100um, 100 uM A
[20] = 100 uM, replicate 2, read-out: Percentage survival at 100um, 100 uM A
[21] = 100 uM, replicate 3, read-out: Percentage survival at 100um, 100 uM A

Which activity at 25 µM (25 uM, mean, read-out: Percentage survival at 25um, 25 uM mean) does the source give for `CNc1nc(=O)[nH]cc1F` [MMV1782388] here?
Its activity at 25 µM is 81.1%.

What about the activity at 25 µM [1] of the same compound?
Its activity at 25 µM is 88.9%.

What about the activity at 25 µM [2] of the same compound?
Its activity at 25 µM is 76.2%.

What about the activity at 25 µM [3] of the same compound?
The activity at 25 µM was 78.1%.

What about the activity at 100 µM (100 uM, mean, read-out: Percentage survival at 100um, 100 uM mean) of the same compound?
The activity at 100 µM was 93.4%.

And the activity at 100 µM (100 uM, replicate (first column), read-out: Percentage survival at 100um, 100 uM A)?
The activity at 100 µM was 99.3%.

What about the activity at 100 µM (100 uM, replicate (second column), read-out: Percentage survival at 100um, 100 uM A) of the same compound?
Its activity at 100 µM is 85.3%.

And the activity at 100 µM (100 uM, replicate (third column), read-out: Percentage survival at 100um, 100 uM A)?
The activity at 100 µM was 95.6%.

`CC1(C)C[C@H]1C(=O)N/C(=C\CCCCSC[C@@H](N)C(=O)O)C(=O)O` [MMV1613559] was tested. Which “Percentage survival at 100um, 100 uM A” value did it give?
Its value is 93.1771% and 127.204% and 75.2981%.

And the activity at 25 µM (read-out: Percentage survival at 25um, 25 uM B)?
The activity at 25 µM was 95.4%.

What about the activity at 25 µM (read-out: Percentage survival at 25um, 25 uM C) of the same compound?
Its activity at 25 µM is 77.8%.

And the activity at 25 µM (read-out: Percentage survival at 25um, 25 uM mean)?
The activity at 25 µM was 92.2%.

What about the activity at 25 µM (read-out: Percentage survival at 25um, 25 um A) of the same compound?
Its activity at 25 µM is 103%.

And the activity at 100 µM (read-out: Percentage survival at 100um, 100 uM mean)?
Its activity at 100 µM is 98.6%.

`CN1CCN(c2ccc3[nH]c(-c4ccc5[nH]c(-c6ccc(O)cc6)nc5c4)nc3c2)CC1` [MMV020752] was tested. Which activity at 25 µM [4] did it give?
Its activity at 25 µM is 67.2%.

What about the activity at 25 µM [5] of the same compound?
The activity at 25 µM was 67.7%.

And the activity at 25 µM [6]?
Its activity at 25 µM is 71.6%.

And the activity at 25 µM [7]?
Its activity at 25 µM is 62.2%.

What about the activity at 100 µM [8] of the same compound?
The activity at 100 µM was 24.3%.

What about the activity at 100 µM [9] of the same compound?
Its activity at 100 µM is 53.4%.

What about the Percent fungal survival at 100 µM [10] of the same compound?
Its Percent fungal survival at 100 µM is 14.6%.

What about the activity at 100 µM [11] of the same compound?
The activity at 100 µM was 4.7%.

How did the activity at 25 µM [12] turn out when `O=C1CCC(N2C(=O)c3ccccc3C2=O)C(=O)N1` (centres unmarked) [MMV002612] was run?
Its activity at 25 µM is 90.8%.

What about the activity at 25 µM [1] of the same compound?
The activity at 25 µM was 89.5%.

And the activity at 25 µM [2]?
The activity at 25 µM was 90.5%.

What about the activity at 25 µM [3] of the same compound?
Its activity at 25 µM is 92.5%.

And the activity at 100 µM [13]?
The activity at 100 µM was 85.3%.

What about the activity at 100 µM (100 uM, replicate 1, read-out: Percentage survival at 100um, 100 uM A (first replicate column)) of the same compound?
The activity at 100 µM was 88.1%.

What about the Percent fungal survival at 100 µM (100 uM, replicate 2) of the same compound?
The Percent fungal survival at 100 µM was 84.8%.

And the activity at 100 µM (100 uM, replicate 3, read-out: Percentage survival at 100um, 100 uM A (third replicate column))?
The activity at 100 µM was 82.9%.

`COc1cccc(N2CCN(C3=Nc4c(F)cccc4[C@H](CC(=O)O)N3c3cc(C(F)(F)F)ccc3OC)CC2)c1` [MMV690653] was tested. Which activity at 25 µM [12] did it give?
Its activity at 25 µM is 91%.

And the activity at 25 µM [1]?
The activity at 25 µM was 89.7%.

What about the activity at 25 µM [2] of the same compound?
The activity at 25 µM was 103%.

What about the activity at 25 µM [3] of the same compound?
Its activity at 25 µM is 80%.

And the activity at 100 µM [14]?
The activity at 100 µM was 86.6%.

What about the activity at 100 µM [13] of the same compound?
The activity at 100 µM was 86.8%.

And the activity at 100 µM [15]?
The activity at 100 µM was 87.2%.

What about the activity at 100 µM [16] of the same compound?
The activity at 100 µM was 86.5%.

For `CC(C)(C)c1ccc(Oc2ccc(N)cc2)cc1` [MMV1174026], which activity at 25 µM [12] is on record?
Its activity at 25 µM is 74%.

And the activity at 25 µM [1]?
Its activity at 25 µM is 108%.

And the activity at 25 µM [2]?
The activity at 25 µM was 51.8%.

What about the activity at 25 µM [3] of the same compound?
The activity at 25 µM was 62.2%.

What about the activity at 100 µM [14] of the same compound?
The activity at 100 µM was -4.12%.

What about the activity at 100 µM [13] of the same compound?
Its activity at 100 µM is 2.41%.

What about the activity at 100 µM [15] of the same compound?
Its activity at 100 µM is 6.23%.

What about the activity at 100 µM [16] of the same compound?
The activity at 100 µM was 5.13%.

`CCCC(=O)OCCc1ccccc1` [MMV1578899] was tested. Which activity at 25 µM [4] did it give?
Its activity at 25 µM is 85.3%.

And the activity at 25 µM [5]?
The activity at 25 µM was 87.9%.

What about the activity at 25 µM [6] of the same compound?
The activity at 25 µM was 88.2%.

What about the activity at 25 µM [7] of the same compound?
Its activity at 25 µM is 79.8%.

What about the activity at 100 µM [8] of the same compound?
The activity at 100 µM was 87.4%.

What about the activity at 100 µM [9] of the same compound?
The activity at 100 µM was 89.3%.

And the Percent fungal survival at 100 µM [10]?
The Percent fungal survival at 100 µM was 88.3%.

And the activity at 100 µM [11]?
The activity at 100 µM was 84.5%.

`CCc1cc(O)c(Oc2cccnc2N)cc1F` [MMV1580854] was tested. Which activity at 25 µM [4] did it give?
Its activity at 25 µM is 86.4%.

And the activity at 25 µM [5]?
Its activity at 25 µM is 97.5%.

And the activity at 25 µM [6]?
Its activity at 25 µM is 88.8%.

What about the activity at 25 µM [7] of the same compound?
Its activity at 25 µM is 72.9%.

What about the activity at 100 µM [8] of the same compound?
The activity at 100 µM was 101%.

And the activity at 100 µM [9]?
The activity at 100 µM was 78.2%.

And the Percent fungal survival at 100 µM [10]?
The Percent fungal survival at 100 µM was 91.9%.

And the activity at 100 µM [11]?
Its activity at 100 µM is 132%.

How did the activity at 25 µM [17] turn out when `CCc1oc2ccccc2c1C(=O)c1ccc(O)cc1` [MMV1578558] was run?
Its activity at 25 µM is 91.9%.

And the activity at 25 µM [1]?
The activity at 25 µM was 95.8%.

What about the activity at 25 µM [2] of the same compound?
The activity at 25 µM was 97%.

What about the activity at 25 µM [3] of the same compound?
Its activity at 25 µM is 82.9%.

And the activity at 100 µM [18]?
The activity at 100 µM was 2.03%.

What about the activity at 100 µM [19] of the same compound?
Its activity at 100 µM is -1.97%.

What about the activity at 100 µM [20] of the same compound?
The activity at 100 µM was 6.39%.

And the activity at 100 µM [21]?
Its activity at 100 µM is 1.66%.

How did the activity at 25 µM [17] turn out when `Nc1nc(N)c2c(Sc3ccccc3)cccc2n1` [MMV021759] was run?
Its activity at 25 µM is 88.1%.

What about the activity at 25 µM [1] of the same compound?
The activity at 25 µM was 63.3%.

And the activity at 25 µM [2]?
Its activity at 25 µM is 65.8%.

And the activity at 25 µM [3]?
The activity at 25 µM was 135%.

And the activity at 100 µM [18]?
Its activity at 100 µM is 5.59%.

What about the activity at 100 µM [19] of the same compound?
Its activity at 100 µM is -1.97%.

What about the activity at 100 µM [20] of the same compound?
The activity at 100 µM was 5.6%.

What about the activity at 100 µM [21] of the same compound?
The activity at 100 µM was 13.1%.

For `Nc1nnc(-c2ccc(Cl)cc2)s1` [MMV046261], which activity at 25 µM [17] is on record?
The activity at 25 µM was 82.4%.

And the activity at 25 µM [1]?
The activity at 25 µM was 77.9%.

What about the activity at 25 µM [2] of the same compound?
The activity at 25 µM was 83%.

What about the activity at 25 µM [3] of the same compound?
Its activity at 25 µM is 86.2%.

And the activity at 100 µM [18]?
Its activity at 100 µM is 69.4%.

What about the activity at 100 µM [19] of the same compound?
Its activity at 100 µM is 62.5%.

And the activity at 100 µM [20]?
The activity at 100 µM was 72.1%.

What about the activity at 100 µM [21] of the same compound?
The activity at 100 µM was 73.6%.
